Experimental data from the OligoGym collection.
HELM strings list units from the 5' end as sugar, base in round brackets, then linkage (d deoxyribose, r ribose, m 2'-O-methyl, p phosphodiester). Strings are as the collection lists them; they lack the last nucleoside at the 3' end of the tested compound. [moe] = 2'-O-(2-methoxyethyl) (MOE); [sp] = phosphorothioate linkage; [m5C] = 5-methylcytosine

The substances below were run against APP (assay: mouse, dose not given). Details: ASO.

Row | Substance | 3 h FOB score
1 | RNA1{[moe](T)[sp].[moe]([m5C])p.[moe](T)p.[moe](G)p.[moe](T)[sp].d(A)[sp].d(T)[sp].d(T)[sp].d(A)[sp].d(T)[sp].d(A)[sp].d([m5C])[sp].d(T)[sp].d([m5C])[sp].d(T)[sp].[moe](G)p.[moe](G)p.[moe](G)[sp].[moe]([m5C])}$$$$ (last 3' nucleoside missing) | 2.5 score 0-7
2 | RNA1{[moe](G)[sp].[moe]([m5C])p.[moe](G)p.[moe]([m5C])p.[moe](A)[sp].d(T)[sp].d(T)[sp].d(T)[sp].d(A)[sp].d([m5C])[sp].d(T)[sp].d(A)[sp].d(G)[sp].d([m5C])[sp].d(A)[sp].[moe]([m5C])p.[moe](A)p.[moe](T)[sp].[moe](T)}$$$$ (last 3' nucleoside missing) | 1.67 score 0-7
3 | RNA1{[moe](A)[sp].[moe](G)p.[moe](T)p.[moe](A)p.[moe]([m5C])[sp].d(A)[sp].d(T)[sp].d(A)[sp].d(T)[sp].d(T)[sp].d([m5C])[sp].d(A)[sp].d(T)[sp].d(T)[sp].d([m5C])[sp].[moe](A)p.[moe](A)p.[moe](T)[sp].[moe]([m5C])}$$$$ (last 3' nucleoside missing) | 0 score 0-7
4 | RNA1{[moe](G)[sp].[moe]([m5C])p.[moe](A)p.[moe](A)p.[moe](G)[sp].d(A)[sp].d([m5C])[sp].d(T)[sp].d(T)[sp].d(T)[sp].d(T)[sp].d([m5C])[sp].d(T)[sp].d(T)[sp].d(T)[sp].[moe](G)p.[moe]([m5C])p.[moe](T)[sp].[moe]([m5C])}$$$$ (last 3' nucleoside missing) | 0 score 0-7
5 | RNA1{[moe](T)[sp].[moe](G)p.[moe](G)p.[moe]([m5C])p.[moe](A)[sp].d(A)[sp].d(A)[sp].d([m5C])[sp].d(T)[sp].d([m5C])[sp].d(T)[sp].d([m5C])[sp].d(T)[sp].d(T)[sp].d(A)[sp].[moe](G)p.[moe](G)p.[moe](T)[sp].[moe](T)}$$$$ (last 3' nucleoside missing) | 1.33 score 0-7
6 | RNA1{[moe](G)[sp].[moe]([m5C])p.[moe](T)p.[moe](A)p.[moe](T)[sp].d(G)[sp].d(A)[sp].d([m5C])[sp].d(A)[sp].d(A)[sp].d([m5C])[sp].d(A)[sp].d([m5C])[sp].d([m5C])[sp].d(G)[sp].[moe]([m5C])p.[moe]([m5C])p.[moe]([m5C])[sp].[moe](A)}$$$$ (last 3' nucleoside missing) | 1 score 0-7
7 | RNA1{[moe](A)[sp].[moe]([m5C])p.[moe](G)p.[moe](G)p.[moe](A)[sp].d([m5C])[sp].d(T)[sp].d(T)[sp].d(T)[sp].d(T)[sp].d(T)[sp].d(T)[sp].d([m5C])[sp].d(T)[sp].d(T)[sp].[moe]([m5C])p.[moe](T)p.[moe](T)[sp].[moe](G)}$$$$ (last 3' nucleoside missing) | 0 score 0-7
8 | RNA1{[moe](G)[sp].[moe](T)p.[moe](A)p.[moe](T)p.[moe]([m5C])[sp].d([m5C])[sp].d(T)[sp].d([m5C])[sp].d(T)[sp].d(T)[sp].d(A)[sp].d(A)[sp].d(T)[sp].d(T)[sp].d([m5C])[sp].[moe]([m5C])p.[moe](T)p.[moe](A)[sp].[moe](T)}$$$$ (last 3' nucleoside missing) | 0 score 0-7
9 | RNA1{[moe]([m5C])[sp].[moe]([m5C])p.[moe]([m5C])p.[moe](A)p.[moe]([m5C])[sp].d(T)[sp].d(T)[sp].d([m5C])[sp].d([m5C])[sp].d([m5C])[sp].d(A)[sp].d(T)[sp].d(T)[sp].d([m5C])[sp].d(T)[sp].[moe](G)p.[moe](G)p.[moe](A)[sp].[moe]([m5C])}$$$$ (last 3' nucleoside missing) | 0.5 score 0-7
10 | RNA1{[moe]([m5C])[sp].[moe]([m5C])p.[moe](A)p.[moe](T)p.[moe]([m5C])[sp].d(T)[sp].d(T)[sp].d([m5C])[sp].d(A)[sp].d([m5C])[sp].d(T)[sp].d(T)[sp].d([m5C])[sp].d(A)[sp].d(G)[sp].[moe](A)p.[moe](G)p.[moe](A)[sp].[moe](T)}$$$$ (last 3' nucleoside missing) | 0.5 score 0-7
11 | RNA1{[moe](A)[sp].[moe](T)p.[moe](G)p.[moe]([m5C])p.[moe](A)[sp].d(T)[sp].d([m5C])[sp].d(A)[sp].d(A)[sp].d(T)[sp].d(T)[sp].d([m5C])[sp].d([m5C])[sp].d(T)[sp].d(T)[sp].[moe](T)p.[moe](G)p.[moe](G)[sp].[moe](G)}$$$$ (last 3' nucleoside missing) | 0 score 0-7
12 | RNA1{[moe]([m5C])[sp].[moe]([m5C])p.[moe](A)p.[moe](T)p.[moe]([m5C])[sp].d(T)[sp].d(T)[sp].d(T)[sp].d(A)[sp].d(T)[sp].d(T)[sp].d([m5C])[sp].d(T)[sp].d(A)[sp].d(T)[sp].[moe](G)p.[moe](A)p.[moe](G)[sp].[moe]([m5C])}$$$$ (last 3' nucleoside missing) | 0.75 score 0-7
13 | RNA1{[moe](T)[sp].[moe](T)p.[moe](T)p.[moe](G)p.[moe]([m5C])[sp].d(A)[sp].d(T)[sp].d(A)[sp].d(T)[sp].d(T)[sp].d([m5C])[sp].d(A)[sp].d(T)[sp].d(A)[sp].d([m5C])[sp].[moe](T)p.[moe](T)p.[moe](G)[sp].[moe](G)}$$$$ (last 3' nucleoside missing) | 0 score 0-7
14 | RNA1{[moe](A)[sp].[moe](T)p.[moe](G)p.[moe](T)p.[moe](T)[sp].d([m5C])[sp].d(A)[sp].d(T)[sp].d(T)[sp].d([m5C])[sp].d(T)[sp].d([m5C])[sp].d(A)[sp].d(T)[sp].d([m5C])[sp].[moe]([m5C])p.[moe]([m5C])p.[moe]([m5C])[sp].[moe](A)}$$$$ (last 3' nucleoside missing) | 1 score 0-7
15 | RNA1{[moe]([m5C])[sp].[moe](T)p.[moe](G)p.[moe](G)p.[moe](G)[sp].d(T)[sp].d(A)[sp].d([m5C])[sp].d(A)[sp].d(T)[sp].d(A)[sp].d(A)[sp].d(T)[sp].d(A)[sp].d([m5C])[sp].[moe](T)p.[moe](A)p.[moe](G)[sp].[moe](G)}$$$$ (last 3' nucleoside missing) | 0 score 0-7
16 | RNA1{[moe](T)[sp].[moe]([m5C])p.[moe]([m5C])p.[moe](A)p.[moe](A)[sp].d(A)[sp].d(G)[sp].d(A)[sp].d(T)[sp].d(T)[sp].d([m5C])[sp].d([m5C])[sp].d(A)[sp].d([m5C])[sp].d(T)[sp].[moe](T)p.[moe](T)p.[moe]([m5C])[sp].[moe](T)}$$$$ (last 3' nucleoside missing) | 0.5 score 0-7
17 | RNA1{[moe]([m5C])[sp].[moe]([m5C])p.[moe](T)p.[moe](T)p.[moe]([m5C])[sp].d(T)[sp].d(T)[sp].d(A)[sp].d([m5C])[sp].d(A)[sp].d(A)[sp].d(T)[sp].d(T)[sp].d(A)[sp].d(T)[sp].[moe](G)p.[moe]([m5C])p.[moe](T)[sp].[moe]([m5C])}$$$$ (last 3' nucleoside missing) | 1 score 0-7
18 | RNA1{[moe](A)[sp].[moe]([m5C])p.[moe](A)p.[moe](T)p.[moe]([m5C])[sp].d(A)[sp].d(T)[sp].d(A)[sp].d(T)[sp].d(T)[sp].d([m5C])[sp].d(T)[sp].d(T)[sp].d(A)[sp].d([m5C])[sp].[moe](T)p.[moe](G)p.[moe](T)[sp].[moe](T)}$$$$ (last 3' nucleoside missing) | 0 score 0-7
19 | RNA1{[moe](T)[sp].[moe](G)[sp].[moe](T)[sp].[moe]([m5C])[sp].[moe](A)[sp].d([m5C])[sp].d(T)[sp].d(T)[sp].d(T)[sp].d([m5C])[sp].d(T)[sp].d(T)[sp].d([m5C])[sp].d(A)[sp].d(G)[sp].[moe]([m5C])[sp].[moe]([m5C])[sp].[moe](A)[sp].[moe](G)}$$$$ (last 3' nucleoside missing) | 6 score 0-7
20 | RNA1{[moe]([m5C])[sp].[moe](T)p.[moe](T)p.[moe](T)p.[moe]([m5C])[sp].d(T)[sp].d(A)[sp].d(T)[sp].d(T)[sp].d(T)[sp].d(A)[sp].d([m5C])[sp].d(T)[sp].d([m5C])[sp].d(A)[sp].[moe]([m5C])p.[moe](A)p.[moe](G)[sp].[moe]([m5C])}$$$$ (last 3' nucleoside missing) | 0 score 0-7
21 | RNA1{[moe](G)[sp].[moe](A)[sp].[moe](T)p.[moe]([m5C])p.[moe](T)[sp].d(G)[sp].d(A)[sp].d(A)[sp].d(T)[sp].d([m5C])[sp].d([m5C])[sp].d([m5C])[sp].d(A)[sp].d([m5C])[sp].d(T)[sp].[moe](T)p.[moe]([m5C])p.[moe]([m5C])[sp].[moe]([m5C])}$$$$ (last 3' nucleoside missing) | 0.25 score 0-7
22 | RNA1{[moe](G)[sp].[moe]([m5C])p.[moe](A)p.[moe](G)p.[moe](T)[sp].d([m5C])[sp].d(A)[sp].d(A)[sp].d(T)[sp].d([m5C])[sp].d(A)[sp].d(A)[sp].d([m5C])[sp].d(T)[sp].d([m5C])[sp].[moe]([m5C])p.[moe](A)p.[moe](A)[sp].[moe]([m5C])}$$$$ (last 3' nucleoside missing) | 0 score 0-7
23 | RNA1{[moe](A)[sp].[moe](A)p.[moe](G)p.[moe](G)p.[moe]([m5C])[sp].d(A)[sp].d(T)[sp].d(G)[sp].d([m5C])[sp].d(A)[sp].d(T)[sp].d(T)[sp].d(T)[sp].d(T)[sp].d(T)[sp].[moe](A)p.[moe](G)p.[moe](G)[sp].[moe](G)}$$$$ (last 3' nucleoside missing) | 1.67 score 0-7
24 | RNA1{[moe](A)[sp].[moe](T)p.[moe](A)p.[moe](T)p.[moe](T)p.[moe](T)p.d(G)[sp].d(T)[sp].d([m5C])[sp].d(A)[sp].d(A)[sp].d([m5C])[sp].d([m5C])[sp].d([m5C])[sp].d(A)[sp].d(G)[sp].[moe](A)p.[moe](A)[sp].[moe]([m5C])}$$$$ (last 3' nucleoside missing) | 1 score 0-7
25 | RNA1{[moe](A)[sp].[moe]([m5C])p.[moe](A)p.[moe]([m5C])p.[moe]([m5C])[sp].d(G)[sp].d([m5C])[sp].d([m5C])[sp].d([m5C])[sp].d(A)[sp].d([m5C])[sp].d([m5C])[sp].d(A)[sp].d(T)[sp].d(G)[sp].[moe](A)p.[moe](G)p.[moe](T)[sp].[moe]([m5C])}$$$$ (last 3' nucleoside missing) | 1 score 0-7
